# Source: US20040063742A1 (priority 2001, published 2004)
# pIC50: −log10 of the molar value.
# Assays:
# dopamine transporter = biological target: T1, dopamine transporter (Rattus norvegicus, UniProt P23977); assay: Inhibition of in vitro [3H]WIN 35428 binding to the dopamine transporter in rat striatal synaptosomes; settings: [3H]WIN 35428 1 nM
# T1 construct: Striata from male Wistar rats (150-200 g) are homogenized; from tissue; host or cells: rat striatum (male Wistar), membrane pellet
# Procedure: Inhibition of In Vitro [^3H]WIN 35428 Binding to the Dopamine Transporter in Rat Striatal Synaptosomes
# In this method the ability of test compounds to inhibit the binding of WIN 35428 to the dopamine transporter in vitro is assessed.
# Tissue preparation: Striata from male Wistar rats (150-200 g) are homogenized for 5-10 sec in 10 ml NaH2PO4 (50 mM, pH 7.4) using an Ultra-Turrax homogenizer. The suspension is centrifuged at 27,000×g for 15 min. The supernatant is discarded and the pellet is resuspended in phosphate buffer (1000 ml per g of original tissue) and used for binding assays.
# Binding assays: Aliquots of 0.5 ml tissue suspension are added to 0.025 ml of test solution and 0.025 ml of [^3H]WIN 35428 (1 nM, final concentration), mixed and incubated for 60 min at 2° C. Non-specific binding is determined using cocaine (30 μM, final concentration).
# After incubation 5 ml of ice-cold buffer is added to the samples and poured directly onto Whatman GF/C glass fiber filters (for the [^3H]GBR 12935 assay the filters are presoaked in 0.1% PEI for at least 20 min) under suction and immediately washed with 5 ml ice-cold buffer. The amount of radioactivity on the filters is determined by conventional liquid scintillation counting using a Tri-carb liquid scintillation analyzer (model 1600CA; Packard, USA). […]
# [1] = system: dopaminergic neurons in dissociated cultures from rat E14 ventral mesencephali; assay: Survival of embryonic rat dopaminergic neurons; type: cell-based; settings: TH-immunoreactive cells, 7 days in culture
# Procedure: Survival of Embryonic Rat Dopaminergic Neurons
# In this experiment the effect of a test compound on the survival of dopaminergic neurons in dissociated cultures established from rat E14 ventral mesencephali (VM) is assessed.
# Embryonic rat brains (Wistar; E14) were isolated under sterile conditions placed in chilled Gey's balanced salt solution (GIBCO) with glucose (6.5 mg/ml).
# The ventral mesencephali were dissected out, cut into small tissue pieces, placed in Neurobasal medium with B27 supplement and gently pressed through a 80 μm Nitex filter. The cells were counted using a hemocytometer and plated in a 6 well multi-dish at a density of approximately 2.0×10^6 cells/well. Culture dishes were pre-coated with poly-D-lysine.
# After 1 hour, the medium was removed and fresh medium added (1.5 ml/well). […] Untreated cultures served as controls. The medium was changed every other day and antimitotics and antibiotics were not used at any stage.
# After 7 days in culture, cultures were then immunostained for tyrosine hydroxylase (TH). Briefly, the cells were washed in 0.05M tris-buffered saline (TBS, pH 7.4) containing 1% Triton X-100 for 3×15 minutes and incubated with 10% foetal bovine serum (FBS, Life Technologies) in TBS for 30 minutes. The cells were then incubated for 24 hours at 4° C. with monoclonal mouse anti-TH antibody (Boehringer Mannheim) diluted 1:600 in TBS with 10% FBS. After rinsing in TBS with 1% Triton X-100 for 3×15 minutes, cells were incubated for 60 minutes with biotinylated anti-mouse IgG antibody (Amersham) diluted 1:200 in TBS with 10% FBS. The cells were then washed in TBS with 1% Triton X-100 (3×15 minutes) and incubated for 60 minutes with streptavidine-peroxidase (Dako) diluted 1:200 in TBS with 10% FBS. After washing in TBS (3×15 minutes), bound antibody was visualised by treatment with 0.05% 3,3-diaminobenzidine (Sigma) in TBS containing 0.01% H2O2. TH-immunoreactive (ir) cells were counted manually.
# [2] = biological target: T2, 3H-dopamine uptake in striatal synaptosomes (Rattus norvegicus, UniProt P23977); assay: In vitro inhibition of 3H-dopamine (3H-DA) uptake in striatal synaptosomes; type: biochemical
# T2 construct: Corpi striati from male Wistar rats (150-200 g) are homogenised; from tissue; host or cells: rat corpus striatum (male Wistar), P2 synaptosomal pellet
# Procedure: In vitro Inhibiti n of ^3H-dopamin (3H-DA) Uptake in Striatal Synaptosom s
# In this test, the ability of a compound enhancing the dopamine activity (below: the test compound) to inhibit the uptake of ^3H-dopamine in striatal synaptosomes is assessed.
# Tissue preparations: Preparations are performed at 0-4° C. unless otherwise indicated. Corpi striati from male Wistar rats (150-200 g) are homogenised for 5-10 sec in 100 volumes of ice-cold 0.32M sucrose containing 1 mM pargyline using an Ultra-Turrax homogenizer. Monoamine oxidase activity will be inhibited in the presence of pargyline. The homogenate is centrifuged at 1000×g for 10 min. The resulting supernatant is then centrifuged at 27,000×g for 50 min and the supernatant is discarded. […]
# Assay: Aliquots of 4.0 ml tissue suspension are added to 100 μl of test solution and 100 μl of ^3H-DA (1 nM, final concentration), mixed and incubated for 25 min at 37° C. Non-specific uptake is determined using benztropine (10 μM, final concentration). […] The amount of radioactivity on the filters is determined by conventional liquid scintillation counting. Specific uptake is calculated as the difference between total uptake and non-specific uptake. […]
# T1 sequence (P23977 whole entry): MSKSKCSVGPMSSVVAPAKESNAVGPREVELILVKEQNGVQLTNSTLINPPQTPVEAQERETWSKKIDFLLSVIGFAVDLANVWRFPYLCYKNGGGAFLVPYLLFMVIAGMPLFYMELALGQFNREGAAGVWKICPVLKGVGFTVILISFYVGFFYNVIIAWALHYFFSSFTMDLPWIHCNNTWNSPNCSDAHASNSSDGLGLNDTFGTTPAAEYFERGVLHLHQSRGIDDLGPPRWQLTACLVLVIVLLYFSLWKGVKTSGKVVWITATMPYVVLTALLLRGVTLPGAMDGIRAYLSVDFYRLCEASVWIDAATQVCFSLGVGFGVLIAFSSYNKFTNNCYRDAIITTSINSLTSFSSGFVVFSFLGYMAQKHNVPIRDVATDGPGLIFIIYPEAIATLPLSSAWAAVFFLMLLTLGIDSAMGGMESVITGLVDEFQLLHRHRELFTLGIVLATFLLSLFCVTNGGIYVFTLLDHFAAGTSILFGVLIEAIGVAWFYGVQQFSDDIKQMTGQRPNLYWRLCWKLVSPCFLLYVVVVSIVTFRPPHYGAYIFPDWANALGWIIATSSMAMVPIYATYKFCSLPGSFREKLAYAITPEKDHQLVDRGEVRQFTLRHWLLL
# T2 sequence (P23977 whole entry): as above
smiles,measurement,setting,value
"O=C1Nc2c(cc(-c3ccc(Cl)cc3)c3c2CCCC3)C1=NO [compound a, 5-(4-Chlorophenyl)-6,7,8,9-tetrahydro-1-H-pyrrolo[3.2-h]naphthalene-2,3-dione-3-oxime]",pIC50,dopamine transporter,6.85
same,Inhibition of cell loss,[1]; 0.3 μM compound a,74%
same,Inhibition of cell loss,[1]; 1.0 μM compound a,62%
same,Inhibition of cell loss,[1]; 3.0 μM compound a,17%
same,pIC50,[2],7.47
